Where a name gives a salt, the structure may show the parent alone.
biological target: T1, BACE-2 (Homo sapiens, UniProt Q9Y5Z0); assay: assay for inhibition of BACE-2; assay type: biochemical
T1 construct: Recombinant BACE-2 (extracellular domain, expressed in baculovirus and purified using standard methods); made in house
T1 sequence (Q9Y5Z0 63-473 limits assumed): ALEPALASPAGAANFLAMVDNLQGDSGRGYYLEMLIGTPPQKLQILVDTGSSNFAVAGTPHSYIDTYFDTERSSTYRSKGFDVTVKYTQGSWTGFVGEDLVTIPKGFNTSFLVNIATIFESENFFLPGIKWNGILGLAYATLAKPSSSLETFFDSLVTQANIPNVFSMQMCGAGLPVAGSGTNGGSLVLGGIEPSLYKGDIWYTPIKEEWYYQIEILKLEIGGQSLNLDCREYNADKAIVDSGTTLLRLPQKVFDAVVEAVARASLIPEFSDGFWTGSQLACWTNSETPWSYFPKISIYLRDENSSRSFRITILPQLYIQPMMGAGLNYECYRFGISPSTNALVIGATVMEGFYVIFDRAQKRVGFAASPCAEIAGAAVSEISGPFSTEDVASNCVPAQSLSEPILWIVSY

Row | SMILES | IC50 [nM]
1 | CC1(c2cccc(NC(=O)c3ccc(Br)cn3)c2)COCC(N)=N1 (centres unmarked) [Example 2, 5-Bromo-pyridine-2-carboxylic acid [3-(5-amino-3-methyl-3,6-dihydro-2H-[1,4]oxazin-3-yl)-phenyl]-amide hydrochloride] | 87
2 | C[C@@]1(c2cccc(NC(=O)c3ccc(Br)cn3)c2)COCC(N)=N1 [Example 3, 5-Bromo-pyridine-2-carboxylic acid [3-((R)-5-amino-3-methyl-3,6-dihydro-2H-[1,4]oxazin-3-yl)-phenyl]-amide hydrochloride] | 56
3 | C[C@]1(c2cccc(NC(=O)c3ccc(Br)cn3)c2)COCC(N)=N1 [Example 4, 5-Bromo-pyridine-2-carboxylic acid [3-((S)-5-amino-3-methyl-3,6-dihydro-2H-[1,4]oxazin-3-yl)-phenyl]-amide hydrochloride] | > 10000
4 | Cc1nc(C(=O)Nc2cccc(C3(C)COCC(N)=N3)c2)co1 (centres unmarked) [Example 5, 2-Methyl-oxazole-4-carboxylic acid [3-(5-amino-3-methyl-3,6-dihydro-2H-[1,4]oxazin-3-yl)-phenyl]-amide hydrochloride] | 373
5 | Cc1cnc(C(=O)Nc2cccc(C3(C)COCC(N)=N3)c2)cn1 (centres unmarked) [Example 6, 5-Methyl-pyrazine-2-carboxylic acid [3-(5-amino-3-methyl-3,6-dihydro-2H-[1,4]oxazin-3-yl)-phenyl]-amide hydrochloride] | 3440
6 | CC1(c2cccc(NC(=O)c3ncc(Br)cn3)c2)COCC(N)=N1 (centres unmarked) [Example 7, 5-Bromo-pyrimidine-2-carboxylic acid [3-(5-amino-3-methyl-3,6-dihydro-2H-[1,4]oxazin-3-yl)-phenyl]-amide hydrochloride] | 309
7 | CC1(c2cccc(NC(=O)c3cn4ccccc4n3)c2)COCC(N)=N1 (centres unmarked) [Example 8, Imidazo[1,2-a]pyridine-2-carboxylic acid [3-(5-amino-3-methyl-3,6-dihydro-2H-[1,4]oxazin-3-yl)-phenyl]-amide hydrochloride] | 7230
8 | CC1(c2cccc(NC(=O)c3ncccc3F)c2)COCC(N)=N1 (centres unmarked) [Example 9, 3-Fluoro-pyridine-2-carboxylic acid [3-(5-amino-3-methyl-3,6-dihydro-2H-[1,4]oxazin-3-yl)-phenyl]-amide hydrochloride] | 663
9 | Cc1nc(C(=O)Nc2cccc(C3(C)COCC(N)=N3)c2)c(C)o1 (centres unmarked) [Example 10, 2,5-Dimethyl-oxazole-4-carboxylic acid [3-(5-amino-3-methyl-3,6-dihydro-2H-[1,4]oxazin-3-yl)-phenyl]-amide hydrochloride] | 289
10 | Cc1nc(C(=O)Nc2cccc(C3(C)COCC(N)=N3)c2)cs1 (centres unmarked) [Example 11, 2-Methyl-thiazole-4-carboxylic acid [3-(5-amino-3-methyl-3,6-dihydro-2H-[1,4]oxazin-3-yl)-phenyl]-amide hydrochloride] | 1060
11 | CC1(c2cccc(NC(=O)c3ccc(O)nn3)c2)COCC(N)=N1 (centres unmarked) [Example 12, 6-Hydroxy-pyridazine-3-carboxylic acid [3-(5-amino-3-methyl-3,6-dihydro-2H-[1,4]oxazin-3-yl)-phenyl]-amide hydrochloride] | 2260
12 | CC1(c2cccc(NC(=O)c3ccccn3)c2)COCC(N)=N1 (centres unmarked) [Example 13, Pyridine-2-carboxylic acid [3-(5-amino-3-methyl-3,6-dihydro-2H-[1,4]oxazin-3-yl)-phenyl]-amide hydrochloride] | 431
13 | CC1(c2cccc(NC(=O)c3ccc(C#N)cn3)c2)COCC(N)=N1 (centres unmarked) [Example 14, 5-Cyano-pyridine-2-carboxylic acid [3-(5-amino-3-methyl-3,6-dihydro-2H-[1,4]oxazin-3-yl)-phenyl]-amide hydrochloride] | 335
14 | CC1(c2cccc(NC(=O)c3cnc(-n4ccc(C(F)(F)F)n4)cn3)c2)COCC(N)=N1 (centres unmarked) [Example 15, 5-(3-Trifluoromethyl-pyrazol-1-yl)-pyrazine-2-carboxylic acid [3-(5-amino-3-methyl-3,6-dihydro-2H-[1,4]oxazin-3-yl)-phenyl]-amide hydrochloride] | 6590
15 | CC1(c2cccc(NC(=O)c3ncc(C(F)(F)F)cc3Cl)c2)COCC(N)=N1 (centres unmarked) [Example 17, 3-Chloro-5-trifluoromethyl-pyridine-2-carboxylic acid [3-(5-amino-3-methyl-3,6-dihydro-2H-[1,4]oxazin-3-yl)-phenyl]-amide hydrochloride] | 694
16 | COc1cnc(C(=O)Nc2cccc(C3(C)COCC(N)=N3)c2)cn1 (centres unmarked) [Example 18, 5-Methoxy-pyrazine-2-carboxylic acid [3-(5-amino-3-methyl-3,6-dihydro-2H-[1,4]oxazin-3-yl)-phenyl]-amide hydrochloride] | 1660
17 | CC1(c2cccc(NC(=O)c3cnc(O)cn3)c2)COCC(N)=N1 (centres unmarked) [Example 19] | 3180
18 | CC1(c2cccc(NC(=O)c3cc(Br)co3)c2)COCC(N)=N1 (centres unmarked) [Example 20, 4-Bromo-furan-2-carboxylic acid [3-(5-amino-3-methyl-3,6-dihydro-2H-[1,4]oxazin-3-yl)-phenyl]-amide hydrochloride] | 226
19 | CC1(c2cccc(NC(=O)c3ccc(C(F)(F)F)cn3)c2)COCC(N)=N1 (centres unmarked) [Example 22, 5-Trifluoromethyl-pyridine-2-carboxylic acid [3-(5-amino-3-methyl-3,6-dihydro-2H-[1,4]oxazin-3-yl)-phenyl]-amide hydrochloride] | 1500

Row | SMILES | IC50 [nM]
20 | CC1(c2cccc(NC(=O)c3coc(C(F)(F)F)c3)c2)COCC(N)=N1 (centres unmarked) [Example 23, 5-Trifluoromethyl-furan-3-carboxylic acid [3-(5-amino-3-methyl-3,6-dihydro-2H-[1,4]oxazin-3-yl)-phenyl]-amide hydrochloride] | > 10000
21 | CC1(c2cccc(NC(=O)c3ccc(Br)cc3)c2)COCC(N)=N1 (centres unmarked) [Example 24, N-[3-(5-Amino-3-methyl-3,6-dihydro-2H-[1,4]oxazin-3-yl)-phenyl]-4-bromo-benzamide hydrochloride] | 1070
22 | CC1(c2cccc(NC(=O)C3CCCCC3)c2)COCC(N)=N1 (centres unmarked) [Example 25, Cyclohexanecarboxylic acid [3-(5-amino-3-methyl-3,6-dihydro-2H-[1,4]oxazin-3-yl)-phenyl]-amide hydrochloride] | > 10000
23 | CC1(c2cccc(NC(=O)C3CCC(F)(F)CC3)c2)COCC(N)=N1 (centres unmarked) [Example 26, 4,4-Difluoro-cyclohexanecarboxylic acid [3-(5-amino-3-methyl-3,6-dihydro-2H-[1,4]oxazin-3-yl)-phenyl]-amide hydrochloride] | > 10000
24 | Cc1ccc(C(=O)Nc2cccc(C3(C)COCC(N)=N3)c2)nc1 (centres unmarked) [Example 27, 5-Methyl-pyridine-2-carboxylic acid [3-(5-amino-3-methyl-3,6-dihydro-2H-[1,4]oxazin-3-yl)-phenyl]-amide hydrochloride] | 374
25 | CC1(c2cccc(NC(=O)c3cccnc3)c2)COCC(N)=N1 (centres unmarked) [Example 28, N-[3-(5-Amino-3-methyl-3,6-dihydro-2H-[1,4]oxazin-3-yl)-phenyl]-nicotinamide hydrochloride] | > 10000
26 | Cc1cc(Br)cnc1C(=O)Nc1cccc([C@]2(C)COCC(=N)N2)c1 [Example 29, 5-Bromo-3-methyl-pyridine-2-carboxylic acid [3-((R)-5-amino-3-methyl-3,6-dihydro-2H-[1,4]oxazin-3-yl)-phenyl]-amide hydrochloride] | 21
27 | COc1ccc(C(=O)Nc2cccc([C@]3(C)COCC(N)=N3)c2)nc1 [Example 30, 5-Methoxy-pyridine-2-carboxylic acid [3-((R)-5-amino-3-methyl-3,6-dihydro-2H-[1,4]oxazin-3-yl)-phenyl]-amide hydrochloride] | 367
28 | NC1=NC(CF)(c2cccc(NC(=O)c3ccc(Br)cn3)c2)COC1 (centres unmarked) [Example 31, 5-Bromo-pyridine-2-carboxylic acid [3-(5-amino-3-fluoromethyl-3,6-dihydro-2H-[1,4]oxazin-3-yl)-phenyl]-amide] | 130
29 | NC1=NC(CF)(c2cc(Cl)cc(NC(=O)c3ccc(Br)cn3)c2)COC1 (centres unmarked) [Example 32] | 1020
30 | NC1=N[C@](CF)(c2cccc(NC(=O)c3ccc(Br)cn3)c2)COC1 [Example 33, 5-Bromo-pyridine-2-carboxylic acid [3-((R)-5-amino-3-fluoromethyl-3,6-dihydro-2H-[1,4]oxazin-3-yl)-phenyl]-amide] | 90
31 | NC1=NC(c2cccc(NC(=O)c3ccc(Br)cn3)c2)(C(F)F)COC1 (centres unmarked) [Example 34, 5-Bromo-pyridine-2-carboxylic acid [3-(5-amino-3-difluoromethyl-3,6-dihydro-2H-[1,4]oxazin-3-yl)-phenyl]-amide hydrochloride] | 345
32 | NC1=NC(c2cccc(NC(=O)c3ccc(Cl)cn3)c2)(C(F)F)COC1 (centres unmarked) [Example 35] | 139
33 | N#Cc1ccc(C(=O)Nc2cccc(C3(C(F)F)COCC(N)=N3)c2)nc1 (centres unmarked) [Example 36] | 910
34 | Cc1cc(Br)cnc1C(=O)Nc1cccc(C2(C(F)F)COCC(N)=N2)c1 (centres unmarked) [Example 37] | 58
35 | Cc1cnc(C(=O)Nc2cccc(C3(C(F)F)COCC(N)=N3)c2)cn1 (centres unmarked) [Example 38] | 9010
36 | NC1=NC(c2cccc(NC(=O)c3ccc(C(F)(F)F)cn3)c2)(C(F)F)COC1 (centres unmarked) [Example 39] | 2970
37 | NC1=NC(c2cccc(NC(=O)c3ncc(C(F)(F)F)cc3Cl)c2)(C(F)F)COC1 (centres unmarked) [Example 40] | 2450
38 | Cc1cc(Cl)cnc1C(=O)Nc1cccc(C2(C(F)F)COCC(N)=N2)c1 (centres unmarked) [Example 41] | 28
